Results taken from patent US20140148432A1, “Compounds for the Treatment of Neurological Disorders” (priority 2009, published 2014).
Like-named read-outs stand apart in the source and are kept apart here.

Legend:
[1] = biological target: T1, human ether-a-go-go potassium channel (hERG) expressed in HEK293 cells (Homo sapiens, UniProt Q12809); test: hERG binding, displacement of [3H]-astemizole; settings: 10 μM test compound, 1.5 nM [3H]-astemizole, duplicate
T1 construct: expressed in transfected cells; host or cells: HEK293 cells
Experimental: (§1) Binding to the human ether-a-go-go potassium channel (hERG) expressed in HEK293 cells by displacement of 1.5 nM [3H]-astemizole. Each result represents the average of displacement binding experiments done in duplicate at 10 uM of the test compound. Percent displacement of 0.25 nM [3H]-prazosin from Wistar rat brain membranes. Each result represents the average of displacement binding experiments done in duplicate at 3 μM of the test compound.

[2] = test system: α1-Adrenergic; test: α1-Adrenergic binding, displacement of [3H]-prazosin from brain membranes; settings: 3 μM test compound, 0.25 nM [3H]-prazosin, Wistar rat brain membranes, duplicate
Experimental: as §1

[3] = biological target: GluN1/GluN2B receptors (Homo sapiens, UniProt Q05586+Q13224); test: IC50 of GluN1/GluN2B receptors expressed in Xenopus oocytes (two electrode voltage-clamp), human; type: cell-based; settings: for Human pH Boost Ratio (IC50 pH 7.6/IC50 pH 6.9): IC50 at pH 7.6 divided by IC50 at pH 6.9; for IC50: 30 μM glycine
[4] = biological target: GluN1/GluN2B receptors (Rattus norvegicus, UniProt P35439+Q00960); test: IC50 of GluN1/GluN2B receptors expressed in Xenopus oocytes (two electrode voltage-clamp), rat; type: cell-based; settings: pH 7.4, 50 μM glutamate, 30 μM glycine
Experimental: (§2) Stage V and VI oocytes were surgically removed from the ovaries of large, well-fed and healthy Xenopus laevis anesthetized with 3-amino-benzoic acid ethyl ester (3 gm/l). Clusters of isolated oocytes were incubated with 292 U/ml Worthington (Freehold, N.J.) type IV collagenase or 1.3 mg/ml collagenase (Life Technologies, Gaithersburg, Md.; 17018-029) for 2 hr in Ca^2+-free solution comprised of (in mM) 115 NaCl, 2.5 KCl, and 10 HEPES, pH 7.5, with slow agitation to remove the follicular cell layer. Oocytes were then washed in the same solution supplemented with 1.8 mM CaCl2 and maintained in Barth's solution comprised of (in mM): 88 NaCl, 1 KCl, 2.4 NaHCO3, 10 HEPES, 0.82 MgSO4, 0.33 Ca(NO3)2, and 0.91 CaCl2 and supplemented with 100 μg/ml gentamycin, 10 μg/ml streptomycin, and 10 μg/ml penicillin. Oocytes were manually defolliculated and injected within 24 hrs of isolation with 3-5 ng of GluN1 subunit cRNA and 7-10 ng of GluN2 cRNA subunit in a 50 nl volume, and incubated in Barth's solution at 18° C. for 2-7 d. Glass injection pipettes had tip sizes ranging from 10-20 microns, and were backfilled with mineral oil. cRNA was synthesized from linearized template cDNA for rat glutamate receptor subunits according to manufacturer specifications (Ambion).
(§3) Two electrode voltage-clamp recordings were made 2-7 days post-injection. Oocytes were placed in a dual-track plexiglass recording chamber with a single perfusion line that splits in a Y-configuration to perfuse two oocytes. Dual recordings were made at room temperature (23° C.) using two Warner 00725B two-electrode voltage clamp amplifiers, arranged as recommended by the manufacturer. Glass microelectrodes (1-10 Megaohms) were filled with 300 mM KCl (voltage electrode) or 3 M KCl (current electrode). The bath clamps communicated across silver chloride wires placed into each side of the recording chamber, both of which were assumed to be at a reference potential of 0 mV. Oocytes were perfused with a solution comprised of (in mM) 90 NaCl, 1 KCl, 10 HEPES, […] and 0.5 BaCl2; pH was adjusted by addition of 1-3 M NaOH or HCl. Oocytes were recorded under voltage clamp at −40 mV. Final concentrations for glutamate and glycine were 50 μM and 30 μM, respectively. Concentration-response curves for experimental compounds were obtained by applying in successive fashion maximal glutamate/glycine, followed by glutamate/glycine plus variable concentrations of experimental compounds. Dose response curves consisting of 4 to 8 concentrations were obtained in this manner. The baseline leak current at −40 mV was measured before and after recording, and the full recording linearly corrected for any change in leak current. The level of inhibition by applied experimental compounds was expressed as a percent of the initial glutamate response, and averaged together across oocytes from multiple experiments. Results were pooled, and the average percent responses at antagonist concentrations were fit by the equation,
Percent Response=(100−minimum)/(1+([conc]/IC50)^nH)+minimum
where minimum is the residual percent response in saturating concentration of the experimental compounds, IC50 is the concentration of antagonist that causes half of the achievable inhibition, and nH is a slope factor describing steepness of the inhibition curve. Minimum was constrained to be greater than or equal to 0.
Recordings were made at pH 6.9, pH 7.4, and pH 7.6. The pH Boost ratio calculated by dividing the IC50 measured at pH 7.6 by the IC50 measured at pH 6.9.

[5] = biological target: GluN1/GluN2A subtype of NMDA receptors (Rattus norvegicus, UniProt Q00959); test: NMDA receptor subunit selectivity, GluN1/GluN2A in Xenopus oocytes; type: cell-based; settings: 2 min; 10 μM antagonist with 50 μM glutamate and 30 μM glycine, two min; agonists alone = 100%; read-out: GluN2A % Current Remaining
Experimental: as §2, §3
(§4) GluN1/GluN2A and GluN1/GluN2D subtype of NMDA receptors were expressed in Xenopus laevis as described in Example 13. Here, a 10 μM concentration of the antagonist was perfused with 50 μM glutamate and 30 μM glycine onto the oocyte for two min and the remaining current in the presence of the antagonist was compared to the maximal current obtained with 50 μM glutamate and 30 μM glycine alone (defined as 100%).

[6] = biological target: GluN1/GluN2D subtype of NMDA receptors (Rattus norvegicus, UniProt Q62645); test: NMDA receptor subunit selectivity, GluN1/GluN2D in Xenopus oocytes; type: cell-based; settings: 2 min; 10 μM antagonist with 50 μM glutamate and 30 μM glycine, two min; agonists alone = 100%; read-out: GluN2D % Current Remaining
Experimental: as §2, §3, §4

[7] = biological target: GluN1/GluN2B-NMDA receptors (Homo sapiens, UniProt Q05586+Q13224); test: Noncompetitive block of GluN1/GluN2B-NMDA receptors in Xenopus oocytes; type: cell-based; settings: 0.1 μM compound 24; increasing glutamate (30 μM glycine) or increasing glycine (30 μM glutamate)
Experimental: Results shown are the mean±SEM of 7 (panel A) or 6 (panel B) oocytes.
Stage V and VI oocytes were surgically removed from the ovaries of large, well-fed and healthy Xenopus laevis anesthetized with 3-amino-benzoic acid ethyl ester (3 gm/l). Clusters of isolated oocytes were incubated with 292 U/ml Worthington (Freehold, N.J.) type IV collagenase or 1.3 mg/ml collagenase (Life Technologies, Gaithersburg, Md.; 17018-029) for 2 hr in Ca^2+-free solution comprised of (in mM) 115 NaCl, 2.5 KCl, and 10 HEPES, pH 7.5, with slow agitation to remove the follicular cell layer. Oocytes were then washed in the same solution supplemented with 1.8 mM CaCl2 and maintained in Barth's solution comprised of (in mM): 88 NaCl, 1 KCl, 2.4 NaHCO3, 10 HEPES, 0.82 MgSO4, 0.33 Ca(NO3)2, and 0.91 CaCl2 and supplemented with 100 μg/ml gentamycin, 10 μg/ml streptomycin, and 10 μg/ml penicillin. […]
Two electrode voltage-clamp recordings were made 2-7 days post-injection. […] Oocytes were recorded under voltage clamp at −40 mV. […] The baseline leak current at −40 mV was measured before and after recording, and the full recording linearly corrected for any change in leak current. The level of inhibition by applied experimental compounds was expressed as a percent of the initial glutamate response, and averaged together across oocytes from multiple experiments. […]

[8] = pH 6.9, 50 μM glutamate, read-out: Human pH 6.9 IC50
[9] = pH 7.4, 50 μM glutamate, read-out: Human pH 7.4 IC50

GluN1/GluN2D subtype of NMDA receptors, sequence (Q62645 28-1323, other chains not shown): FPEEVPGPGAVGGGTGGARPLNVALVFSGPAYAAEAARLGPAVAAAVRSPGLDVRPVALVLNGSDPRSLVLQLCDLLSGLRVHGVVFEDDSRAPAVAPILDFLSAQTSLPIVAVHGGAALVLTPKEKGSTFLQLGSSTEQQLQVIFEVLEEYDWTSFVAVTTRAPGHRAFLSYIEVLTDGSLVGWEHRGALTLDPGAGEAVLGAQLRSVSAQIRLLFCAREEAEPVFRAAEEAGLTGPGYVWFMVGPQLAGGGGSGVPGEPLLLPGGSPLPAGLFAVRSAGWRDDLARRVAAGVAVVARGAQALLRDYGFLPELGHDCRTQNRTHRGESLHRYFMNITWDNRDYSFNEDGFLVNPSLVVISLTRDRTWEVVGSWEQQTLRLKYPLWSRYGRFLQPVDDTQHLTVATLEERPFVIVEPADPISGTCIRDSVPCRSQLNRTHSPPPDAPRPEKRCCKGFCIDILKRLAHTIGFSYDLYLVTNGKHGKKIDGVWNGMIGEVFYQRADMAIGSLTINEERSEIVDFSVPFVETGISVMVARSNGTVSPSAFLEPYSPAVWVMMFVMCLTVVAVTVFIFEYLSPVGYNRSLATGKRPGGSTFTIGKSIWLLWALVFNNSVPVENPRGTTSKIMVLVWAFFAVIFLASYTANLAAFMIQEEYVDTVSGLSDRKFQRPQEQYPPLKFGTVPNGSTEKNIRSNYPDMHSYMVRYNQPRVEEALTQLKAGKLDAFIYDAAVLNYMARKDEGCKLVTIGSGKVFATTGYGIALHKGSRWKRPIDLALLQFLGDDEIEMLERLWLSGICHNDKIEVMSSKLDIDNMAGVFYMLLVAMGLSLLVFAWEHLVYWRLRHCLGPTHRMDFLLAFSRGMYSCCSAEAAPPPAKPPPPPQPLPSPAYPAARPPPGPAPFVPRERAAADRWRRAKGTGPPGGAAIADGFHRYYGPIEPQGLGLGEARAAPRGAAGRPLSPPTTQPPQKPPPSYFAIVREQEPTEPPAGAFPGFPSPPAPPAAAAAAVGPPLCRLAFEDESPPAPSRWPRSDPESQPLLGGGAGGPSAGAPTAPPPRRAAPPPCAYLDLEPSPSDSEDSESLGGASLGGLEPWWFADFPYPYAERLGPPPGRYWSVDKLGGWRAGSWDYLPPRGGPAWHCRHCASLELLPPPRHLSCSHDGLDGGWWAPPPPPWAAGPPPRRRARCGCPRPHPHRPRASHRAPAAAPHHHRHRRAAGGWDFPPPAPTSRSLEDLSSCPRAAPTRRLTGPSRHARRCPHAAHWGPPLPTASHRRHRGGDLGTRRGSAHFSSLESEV
GluN1/GluN2B receptors (Rattus norvegicus, UniProt P35439+Q00960), sequence (Q00960 27-1482, other chains not shown): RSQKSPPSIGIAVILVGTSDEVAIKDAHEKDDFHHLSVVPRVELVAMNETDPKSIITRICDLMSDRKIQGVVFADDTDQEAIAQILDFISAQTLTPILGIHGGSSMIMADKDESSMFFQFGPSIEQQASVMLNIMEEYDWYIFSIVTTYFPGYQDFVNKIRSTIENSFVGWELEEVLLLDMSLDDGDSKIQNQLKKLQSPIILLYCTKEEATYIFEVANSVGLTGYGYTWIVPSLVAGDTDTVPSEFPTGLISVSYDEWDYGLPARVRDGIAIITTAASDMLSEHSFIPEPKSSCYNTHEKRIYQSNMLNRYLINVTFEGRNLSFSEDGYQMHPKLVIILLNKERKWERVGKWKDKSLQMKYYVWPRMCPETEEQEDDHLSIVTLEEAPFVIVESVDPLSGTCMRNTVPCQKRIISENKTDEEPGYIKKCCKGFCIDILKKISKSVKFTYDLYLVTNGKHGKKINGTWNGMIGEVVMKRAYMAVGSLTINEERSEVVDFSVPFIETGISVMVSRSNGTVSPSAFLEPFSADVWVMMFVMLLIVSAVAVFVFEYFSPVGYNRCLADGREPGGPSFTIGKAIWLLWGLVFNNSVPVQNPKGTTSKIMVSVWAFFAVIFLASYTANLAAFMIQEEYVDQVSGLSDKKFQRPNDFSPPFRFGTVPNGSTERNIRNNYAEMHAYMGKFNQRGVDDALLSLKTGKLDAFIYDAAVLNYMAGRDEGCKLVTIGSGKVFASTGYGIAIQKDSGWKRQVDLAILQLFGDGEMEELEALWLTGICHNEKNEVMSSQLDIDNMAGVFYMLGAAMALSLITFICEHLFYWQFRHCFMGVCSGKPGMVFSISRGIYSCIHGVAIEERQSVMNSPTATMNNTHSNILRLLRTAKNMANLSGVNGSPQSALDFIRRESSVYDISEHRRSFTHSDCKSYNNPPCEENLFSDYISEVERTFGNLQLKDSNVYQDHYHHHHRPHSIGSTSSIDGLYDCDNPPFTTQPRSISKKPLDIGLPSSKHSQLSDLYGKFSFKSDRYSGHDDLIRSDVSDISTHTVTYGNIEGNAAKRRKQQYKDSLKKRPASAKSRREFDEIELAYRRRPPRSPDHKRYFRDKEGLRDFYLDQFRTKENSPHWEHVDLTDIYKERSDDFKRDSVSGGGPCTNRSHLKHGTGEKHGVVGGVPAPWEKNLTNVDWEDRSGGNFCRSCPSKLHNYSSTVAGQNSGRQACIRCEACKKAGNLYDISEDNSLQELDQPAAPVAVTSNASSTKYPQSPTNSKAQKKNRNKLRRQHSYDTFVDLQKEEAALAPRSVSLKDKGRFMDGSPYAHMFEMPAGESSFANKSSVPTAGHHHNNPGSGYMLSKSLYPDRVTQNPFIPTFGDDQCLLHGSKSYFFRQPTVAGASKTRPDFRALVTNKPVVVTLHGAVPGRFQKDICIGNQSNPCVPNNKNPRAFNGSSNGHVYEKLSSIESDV
GluN1/GluN2B receptors (Homo sapiens, UniProt Q05586+Q13224), sequence (Q13224 27-1484, other chains not shown): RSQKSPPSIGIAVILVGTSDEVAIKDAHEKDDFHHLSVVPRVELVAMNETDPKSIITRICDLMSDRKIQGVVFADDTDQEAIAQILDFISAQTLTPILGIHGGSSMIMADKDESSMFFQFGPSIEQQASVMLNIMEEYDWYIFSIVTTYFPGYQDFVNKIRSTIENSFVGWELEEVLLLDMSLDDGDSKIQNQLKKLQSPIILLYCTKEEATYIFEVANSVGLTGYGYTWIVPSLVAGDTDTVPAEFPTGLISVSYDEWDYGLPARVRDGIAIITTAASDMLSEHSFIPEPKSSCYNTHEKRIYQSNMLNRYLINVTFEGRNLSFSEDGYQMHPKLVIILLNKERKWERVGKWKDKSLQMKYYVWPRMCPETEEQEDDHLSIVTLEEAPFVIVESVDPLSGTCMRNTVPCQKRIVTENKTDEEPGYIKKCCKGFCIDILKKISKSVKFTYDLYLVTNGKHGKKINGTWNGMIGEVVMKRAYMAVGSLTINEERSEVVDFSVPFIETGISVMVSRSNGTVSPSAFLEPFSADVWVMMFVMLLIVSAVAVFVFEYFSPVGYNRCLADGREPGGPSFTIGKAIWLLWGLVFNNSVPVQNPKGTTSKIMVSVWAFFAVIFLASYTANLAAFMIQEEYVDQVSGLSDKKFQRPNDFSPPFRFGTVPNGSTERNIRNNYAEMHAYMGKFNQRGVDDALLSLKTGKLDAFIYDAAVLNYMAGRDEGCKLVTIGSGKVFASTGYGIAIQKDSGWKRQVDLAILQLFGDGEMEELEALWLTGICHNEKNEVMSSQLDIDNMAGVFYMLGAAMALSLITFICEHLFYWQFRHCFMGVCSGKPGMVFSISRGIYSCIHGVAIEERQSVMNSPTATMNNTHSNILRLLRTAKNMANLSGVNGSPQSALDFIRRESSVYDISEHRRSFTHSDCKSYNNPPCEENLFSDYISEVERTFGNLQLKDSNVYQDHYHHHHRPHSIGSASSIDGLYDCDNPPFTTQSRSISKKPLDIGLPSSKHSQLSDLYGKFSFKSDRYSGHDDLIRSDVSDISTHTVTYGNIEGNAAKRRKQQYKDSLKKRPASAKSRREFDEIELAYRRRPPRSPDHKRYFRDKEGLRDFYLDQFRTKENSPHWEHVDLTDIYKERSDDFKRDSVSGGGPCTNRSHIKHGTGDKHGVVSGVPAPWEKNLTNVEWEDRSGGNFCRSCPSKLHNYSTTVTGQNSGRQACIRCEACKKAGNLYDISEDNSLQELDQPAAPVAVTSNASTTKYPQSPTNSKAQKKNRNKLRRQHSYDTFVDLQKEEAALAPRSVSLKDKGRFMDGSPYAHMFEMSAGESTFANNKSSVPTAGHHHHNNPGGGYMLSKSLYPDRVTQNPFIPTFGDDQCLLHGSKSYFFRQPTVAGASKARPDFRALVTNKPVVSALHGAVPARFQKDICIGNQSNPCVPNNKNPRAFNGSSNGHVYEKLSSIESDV

α1-Adrenergic binding % Displacement @ 3 μM [2] [%]	Human pH Boost Ratio (IC50 pH 7.6/IC50 pH 6.9) [3]	IC50 [3, 8] [nM]	IC50 [3, 9] [nM]	IC50 [4] [nM]	remaining activity at 10 µM [5] [%]	remaining activity at 10 µM [6] [%]	Block on increasing glutamate and increasing glycine [7]	Compound	hERG Binding % Displacement @ 10 μM [1] [%]
16	2.0	283	468	339	105	106		O=C1CCc2cc(OCC3CCN(C(=O)Nc4ccc(Cl)cc4)CC3)ccc2N1 [Compound 13, N-(4-chlorophenyl)-4-(((2-oxo-1,2,3,4-tetrahydroquinolin-6-yl)oxy)methyl)piperidine-1-carboxamide]	37
12	3.6	27	74	54	94.2	84.5	cannot overcome the block	O=C1CCc2cc(OCC3CN(C(=O)Nc4ccc(C(F)(F)F)cc4)C3)ccc2N1 [Compound 24, 3-(((2-oxo-1,2,3,4-tetrahydroquinolin-6-yl)oxy)methyl)-N-(4-(trifluoromethyl)phenyl)azetidine-1-carboxamide]	68
28	1.1	886	1640	1270	103	101		O=C1CCc2cc(OCC3CCN(C(=O)/C=C/c4ccc(Cl)c(Cl)c4)CC3)ccc2N1 [Compound 6, (E)-6-((1-(3-(3,4-dichlorophenyl)acryloyl)piperidin-4-yl)methoxy)-3,4-dihydroquinolin-2(1H)-one]	85
<1		> 30000	> 10000	6100	102	94.9		O=C1CCc2cc(OCC3CN(C(=O)n4ccnc4)C3)ccc2N1 [Compound 26, 6-((1-(1H-imidazole-1-carbonyl)azetidin-3-yl)methoxy)-3,4-dihydroquinolin-2(1H)-one]	<1
25	3.0	19	41	53	94.6	87.6		O=C1CCc2cc(OCC3CN(C(=O)Nc4ccc(Cl)c(Cl)c4)C3)ccc2N1 [Compound 23, N-(3,4-dichlorophenyl)-3-(((2-oxo-1,2,3,4-tetrahydroquinolin-6-yl)oxy)methyl)azetidine-1-carboxamide]	60
7	2.0	237	517	359	98.7	93.9		O=C1CCc2cc(OCC3CCN(C(=O)Nc4ccc(C(F)(F)F)cc4)CC3)ccc2N1 [Compound 17, 4-(((2-oxo-1,2,3,4-tetrahydroquinolin-6-yl)oxy)methyl)-N-(4-(trifluoromethyl)phenyl)piperidine-1-carboxamide]	75
2	1.7	103	170	166	102	89.2		O=C1CCc2cc(OCC3CN(C(=O)Nc4ccc(Cl)cc4)C3)ccc2N1 [Compound 21, N-(4-chlorophenyl)-3-(((2-oxo-1,2,3,4-tetrahydroquinolin-6-yl)oxy)methyl)azetidine-1-carboxamide]	25
16	1.4	589	868	837	111	104		O=C1CCc2cc(OCC3CCN(C(=O)OCc4ccc(Cl)cc4)CC3)ccc2N1 [Compound 11, 4-chlorobenzyl 4-(((2-oxo-1,2,3,4-tetrahydroquinolin-6-yl)oxy)methyl)piperidine-1-carboxylate]	56
	1.2	764			104	104		O=C(Nc1ccc(Cl)c(Cl)c1)N1CCC(COc2ccc(O)cc2)CC1 [Compound 35, N-(3,4-dichlorophenyl)-4-((4-hydroxyphenoxy)methyl)-piperidine-1-carboxamide]	
	1.8	740			111	104		O=C(Nc1ccc(Cl)cc1)N1CCC(COc2ccc(O)cc2)CC1 [Compound 33]	
13	8.6	490	2000	3200	96.3	101		O=C1CCc2cc(OCC3CCN(C(=O)Cc4ccc(Cl)cc4)CC3)ccc2N1 [Compound 15, 6-((1-(2-(4-chlorophenyl)acetyl)piperidin-4-yl)methoxy)-3,4-dihydroquinolin-2(1H)-one]	18
12	3.5	2300	3500	4900	102	94.5		O=C1CCc2cc(OCC3CN(C(=O)NCc4ccc(Cl)cc4)C3)ccc2N1 [Compound 28, N-(4-chlorobenzyl)-3-(((2-oxo-1,2,3,4-tetrahydroquinolin-6-yl)oxy)methyl)azetidine-1-carboxamide]	27
